# Reference: ChEMBL document CHEMBL1128255, “Synthesis of 11 beta-[18F]fluoro-5 alpha-dihydrotestosterone and 11 beta-[18F]fluoro-19-nor-5 alpha-dihydrotestosterone: preparation via halofluorination-reduction, receptor binding, and tissue distribution” (J Med Chem, 1995)
# Key:
# [1] = %ID/g is percent injected dose per gram of tissue and in vivo distribution of compound obtained after 1 hour in prostate (d)/muscle; type: ADME, organism-based
# [2] = %ID/g is percent injected dose per gram of tissue and in vivo distribution of compound obtained after 1 hour in prostate (v)/blood; type: ADME, organism-based
# [3] = %ID/g is percent injected dose per gram of tissue and in vivo distribution of compound obtained after 2 hour in prostate (d); type: ADME, organism-based, Prostate gland
# [4] = %ID/g is percent injected dose per gram of tissue and in vivo distribution of compound obtained after 2 hour in prostate (v)/blood; type: ADME, organism-based
# [5] = %ID/g is percent injected dose per gram of tissue and in vivo distribution of compound obtained after 2 hour in prostate (v)/muscle; type: ADME, organism-based
# [6] = %ID/g is percent injected dose per gram of tissue and in vivo distribution of compound obtained after 2 hour in spleen; type: ADME, organism-based
# [7] = %ID/g is percent injected dose per gram of tissue and in vivo distribution of compound obtained after 2 hr in kidney; type: ADME, organism-based
# [8] = %ID/g is percent injected dose per gram of tissue and in vivo distribution of compound obtained after 4 hour in bladder; type: ADME, organism-based, Urinary bladder
# [9] = %ID/g is percent injected dose per gram of tissue and in vivo distribution of compound obtained after 4 hour in blood; type: ADME, organism-based
# [10] = %ID/g is percent injected dose per gram of tissue and in vivo distribution of compound obtained after 4 hour in kidney; type: ADME, organism-based
# [11] = %ID/g is percent injected dose per gram of tissue and in vivo distribution of compound obtained after 2 hour in prostate (d)/muscle; type: ADME, organism-based
# [12] = %ID/g is percent injected dose per gram of tissue and in vivo distribution of compound obtained after 1 hour in bone; type: ADME, organism-based, Bone element
# [13] = %ID/g is percent injected dose per gram of tissue and in vivo distribution of compound obtained after 1 hour in kidney; type: ADME, organism-based
# [14] = %ID/g is percent injected dose per gram of tissue and in vivo distribution of compound obtained after 1 hour in liver; type: ADME, organism-based
# [15] = %ID/g is percent injected dose per gram of tissue and in vivo distribution of compound obtained after 1 hour in muscle; type: ADME, organism-based
# [16] = %ID/g is percent injected dose per gram of tissue and in vivo distribution of compound obtained after 1 hour in prostate (d); type: ADME, organism-based, Prostate gland
# [17] = %ID/g is percent injected dose per gram of tissue and in vivo distribution of compound obtained after 2 hour (low) in lung; type: ADME, organism-based
# [18] = %ID/g is percent injected dose per gram of tissue and in vivo distribution of compound obtained after 2 hour (low) in muscle; type: ADME, organism-based
# [19] = %ID/g is percent injected dose per gram of tissue and in vivo distribution of compound obtained after 2 hour (low) in prostate (v)/blood; type: ADME, organism-based
# [20] = %ID/g is percent injected dose per gram of tissue and in vivo distribution of compound obtained after 2 hour (low) in prostate (v)/muscle; type: ADME, organism-based
# [21] = %ID/g is percent injected dose per gram of tissue and in vivo distribution of compound obtained after 2 hour in fat; type: ADME, organism-based, Adipose tissue
# [22] = %ID/g is percent injected dose per gram of tissue and in vivo distribution of compound obtained after 2 hour in muscle; type: ADME, organism-based
# [23] = %ID/g is percent injected dose per gram of tissue and in vivo distribution of compound obtained after 2 hour (low) in bone; type: ADME, organism-based, Bone element
# [24] = %ID/g is percent injected dose per gram of tissue and in vivo distribution of compound obtained after 2 hour (blocked) in bladder; type: ADME, organism-based, Urinary bladder
# [25] = %ID/g is percent injected dose per gram of tissue and in vivo distribution of compound obtained after 2 hour (blocked) in bone; type: ADME, organism-based, Bone element
# [26] = target: T1, Androgen receptor (Rattus norvegicus) (UniProt P15207)
# T1 sequence (whole entry): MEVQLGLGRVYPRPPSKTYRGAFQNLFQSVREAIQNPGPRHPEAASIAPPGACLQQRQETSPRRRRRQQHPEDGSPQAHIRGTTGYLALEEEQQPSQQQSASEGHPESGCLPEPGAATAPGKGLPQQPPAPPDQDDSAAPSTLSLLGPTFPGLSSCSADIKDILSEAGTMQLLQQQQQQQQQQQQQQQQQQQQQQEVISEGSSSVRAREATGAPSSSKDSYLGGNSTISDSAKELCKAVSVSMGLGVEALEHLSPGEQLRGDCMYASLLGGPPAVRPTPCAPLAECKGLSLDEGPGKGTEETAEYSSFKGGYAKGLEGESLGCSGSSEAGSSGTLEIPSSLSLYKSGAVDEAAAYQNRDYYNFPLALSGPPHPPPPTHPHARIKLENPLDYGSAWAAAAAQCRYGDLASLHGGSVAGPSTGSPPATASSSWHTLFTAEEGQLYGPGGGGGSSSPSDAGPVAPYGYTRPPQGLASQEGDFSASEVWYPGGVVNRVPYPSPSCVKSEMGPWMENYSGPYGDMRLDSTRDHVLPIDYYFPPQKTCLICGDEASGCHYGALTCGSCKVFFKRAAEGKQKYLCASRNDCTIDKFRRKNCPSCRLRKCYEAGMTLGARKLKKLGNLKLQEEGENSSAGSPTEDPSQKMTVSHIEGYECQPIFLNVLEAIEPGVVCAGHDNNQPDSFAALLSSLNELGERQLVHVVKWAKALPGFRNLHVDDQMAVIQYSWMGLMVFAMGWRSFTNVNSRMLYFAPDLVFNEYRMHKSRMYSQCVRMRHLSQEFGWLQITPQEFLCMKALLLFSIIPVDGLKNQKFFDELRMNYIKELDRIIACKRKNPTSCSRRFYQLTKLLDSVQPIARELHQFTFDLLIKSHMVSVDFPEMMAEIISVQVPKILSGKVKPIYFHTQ
# Description: Binding selectivity index (BSI) as ratio of RBA for androgen receptor to non-specific binding of R1881
# physchem = details: octanol/water
# Description: Partition coefficient (logP)
SMILES,ID/g [1] [%],ID/g [2] [%],ID/g [3] [%],ID/g [4] [%],ID/g [5] [%],ID/g [6] [%],ID/g [7] [%],ID/g [8] [%],ID/g [9] [%],ID/g [10] [%],ID/g [11] [%],ID/g [12] [%],ID/g [13] [%],ID/g [14] [%],ID/g [15] [%],ID/g [16] [%],ID/g [17] [%],ID/g [18] [%],ID/g [19] [%],ID/g [20] [%],other results
C[C@]12CCC(=O)C[C@@H]1CC[C@@H]1[C@@H]2[C@@H](F)C[C@]2(C)[C@@H](O)CC[C@@H]12,7.75,5.41,0.352,10.058,9.022,0.03,0.229,0.268,0.028,0.155,10.141,0.064,0.417,1.16,0.059,0.459,0.036,0.026,10.43,8.86,ID/g [21]: 0.024%; ID/g [22]: 0.038%; ID/g [23]: 0.059%; ID/g [24]: 0.903%; ID/g [25]: 0.061%; BSI [26]: 42.8; logP (physchem): 3.5
C[C@]12C[C@H](F)[C@H]3[C@@H](CC[C@H]4CC(=O)CC[C@@H]43)[C@@H]1CC[C@@H]2O,3.473,3.054,0.132,2.605,3.404,0.036,0.276,0.456,0.035,0.201,3.882,0.068,0.458,1.812,0.064,0.21,0.061,0.037,2.427,2.993,ID/g [21]: 0.041%; ID/g [22]: 0.035%; ID/g [23]: 0.096%; ID/g [24]: 11.404%; ID/g [25]: 0.065%; BSI [26]: 91.8; logP (physchem): 3.1
